Results from patent US6525001B1, “Substituted pyrimidine and pyridine herbicides” (Mid-American Commercialization Corporation, priority 1997, dated 2003).

Experiments:
Assay in all cases: Test C
Assay type in all cases: in vivo
Parameters in all cases: key: 0 was no effect; 100 was complete control
Details in all cases: PREEMERGENCE
[1] = system: cocklebur (Xanthium strumarium)
[2] = system: johnsongrass (Sorghum halepense)
[3] = system: redroot pigweed (Amaranthus retroflexus)
[4] = system: field bindweed (Convolvulus arvensis)

SMILES	Plant response rating, Cocklebur ([1]; Rate 35 g/ha)	Plant response rating, Cocklebur ([1]; Rate 70 g/ha)	Plant response rating, Cocklebur ([1]; Rate 140 g/ha)	Plant response rating, Johnsongrass ([2]; Rate 35 g/ha)	Plant response rating, Johnsongrass ([2]; Rate 70 g/ha)	Plant response rating, Johnsongrass ([2]; Rate 140 g/ha)	Plant response rating, Redroot pigweed ([3]; Rate 70 g/ha)	Plant response rating, Redroot pigweed ([3]; Rate 140 g/ha)	Plant response rating, Field bindweed ([4]; Rate 70 g/ha)	Plant response rating, Field bindweed ([4]; Rate 140 g/ha)	Plant response rating, Redroot pigweed ([3]; Rate 35 g/ha)	Plant response rating, Field bindweed ([4]; Rate 35 g/ha)
Cc1cnc(-c2ccc(C(F)(F)F)cc2)nc1C(Cl)c1cccc(C(F)(F)F)c1 (racemic) [Compound 21]	0	0	0	0	0	5	80	100	40	40		
Cc1cnc(-n2cnc(C(F)(F)F)n2)nc1Cc1cccc(C(F)(F)F)c1 [Compound 43]	0			10	30	30	100	100	100	100	100	100
Cc1cnc(-n2ccc(C(F)(F)F)n2)nc1C(=O)c1cccc(OC(F)(F)F)c1 [Compound 66]	0	0	0	0	5	10	100	100	80	90	100	40
